Reference: patent US5576339A, “Pyridyl substituted cyclopentadienes for the treatment of inflamation” (priority 1995, dated 1996)

Legend:
[1] = system: COX II enzyme; conditions: in words, literature; cited from earlier work
[2] = biological target: COX I; assay: Assay for COX I activity (PGE2 ELISA, recombinant enzyme); assay type: biochemical, human or murine; conditions: arachidonic acid (10 μM), pre-incubated 10-20 minutes, pH 8.0; read-out: COX I ID50
Experimental: (§1) A 2.0 kb fragment containing the coding region of either human or murine COX-I or human or murine COX-II was cloned into a BamH1 site of the baculovirus transfer vector pVL1393 (Invitrogen) to generate the baculovirus transfer vectors for COX-I and COX-II in a manner similar to the method of D. R. O'Reilly et al (Baculovirus Expression Vectors: A Laboratory Manual (1992)). Recombinant baculoviruses were isolated by transfecting 4 μg of baculovirus transfer vector DNA into SF9 insect cells (2×10e8) along with 200 ng of linearized baculovirus plasmid DNA by the calcium phosphate method. See M. D. Summers and G. E. Smith, A Manual of Methods for Baculovirus Vectors and Insect Cell Culture Procedures. Texas Agric. Exp. Station Bull. 1555 (1987). Recombinant viruses were purified by three rounds of plaque purification and high titer (10E7-10E8 pfu/ml) stocks of virus were prepared. For large scale production, SF9 insect cells were infected in 10 liter fermentors (0.5×10^6 /ml) with the recombinant baculovirus stock such that the multiplicity of infection was 0.1. […]
(§2) COX activity was assayed as PGE2 formed/μg protein/time using an ELISA to detect the prostaglandin released. […] The PGE2 formed was measured by standard ELISA technology (Cayman Chemical).

[3] = biological target: COX II; assay: Assay for COX II activity (PGE2 ELISA, recombinant enzyme); assay type: biochemical, human or murine; conditions: arachidonic acid (10 μM), pre-incubated 10-20 minutes, pH 8.0; read-out: COX II ID50
Experimental: as §1, §2

Row | IC50 [2] [µM] | IC50 [3] [nM] | Compound | inhibition of the COX II enzyme [1]
1 | – | – | CS(=O)(=O)Nc1ccc([N+](=O)[O-])cc1OC1CCCCC1 [N-(2-cyclohexyloxy-4-nitrophenyl)methanesulfonamide] | inhibits the COX II enzyme
2 | – | – | COc1ccc2cc(CC(=O)O)ccc2c1 [6-methoxy-2-napthylacetic acid] | selectively inhibit the COX II enzyme
3 | 3.68 | 50 | CC1(C)C=C(c2ccc(F)cc2)C(c2ccc(S(C)(=O)=O)cc2)=C1 [Example 1, 1-Methylsulfonyl-4-[1,1-dimethyl-4-(4-fluorophenyl)cyclopenta-2,4-dien-3-yl]benzene] | –
